{
  "source": "patent US11155542B2",
  "about": "“Antimicrobial compounds, their use for the treatment of mammalian infections and a new metabolic mechanism” (priority 2016, dated 2021)",
  "data": [
    {"tested_on": "Mtb (PDR) 12700", "experiment": "Resazurin microtiter assay (REMA), MIC Mtb (PDR) 12700", "type": "cell-based", "conditions": "Mycobacterium tuberculosis; PDR = poly drug resistant (isoniazid and streptomycin)", "units": {"MIC": "ng/mL"}, "values": [
      {"smiles": "C[C@H]1COC2(CCN(c3nc(=O)c4cc(C(F)(F)F)cc([N+](=O)[O-])c4s3)CC2)O1", "note": "[BTZ043, (S)-2-(2-methyl-1,4-dioxa-8-azaspiro[4.5]decan-8-yl)-8-nitro-6-(trifluoro-methyl)-4H-1,3-benzothiazin-4-one, reference compound]", "MIC": 2},
      {"smiles": "Cc1c(C(F)(F)F)cc2c(=O)nc(N3CCC4(CC3)OC[C@H](C)O4)sc2c1[N+](=O)[O-]", "note": "[Example 9a, (S)-7-Methyl-2-(2-methyl-1,4-dioxa-8-azaspiro[4.5]decan-8-yl)-8-nitro-6-(trifluoromethyl)-4H-1,3-benzothiazin-4-one]", "MIC": 250},
      {"smiles": "Cc1c(C(F)(F)F)cc([N+](=O)[O-])c2sc(N3CCC4(CC3)OC[C@H](C)O4)nc(=O)c12", "note": "[Example 9b, (S)-5-Methyl-2-(2-methyl-1,4-dioxa-8-azaspiro[4.5]decan-8-yl)-8-nitro-6-(trifluoromethyl)-4H-1,3-benzothiazin-4-one]", "MIC": 4},
      {"smiles": "Cc1c(C(F)(F)F)cc([N+](=O)[O-])c2sc(N3CCN(CC4CCCCC4)CC3)nc(=O)c12", "note": "[Example 16, 2-(4-(Cyclohexylmethyl)piperazin-1-yl)-5-methyl-8-nitro-6-(trifluoromethyl)-4H-1,3-benzothiazin-4-one]", "MIC": "≤ 0.063"}
    ]}
  ]
}
